Test results reported in ChEMBL document CHEMBL1201862, “PubChem BioAssay data set” (2004).
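Each compound was tested at five concentrations against cells in 96-well plates for 48 hours. Abbreviation: GI50, concentration required for 50% inhibition of growth.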 The source made the active and inactive calls. Rule as the data show it: active = GI50 up to about 1.1 µM and inactive = higher.

Tests used:
Assay in all cases: DTP human tumour cell line panel, 48 h
BT-549 = system: BT-549
HCT-15 = system: HCT-15
HOP-62 = system: HOP-62
HOP-92 = system: HOP-92
LOX IMVI = system: LOX IMVI
M19-MEL = system: M19-MEL
MCF7 = system: MCF7
MDA-MB-231 = system: MDA-MB-231
MDA-MB-435 = system: MDA-MB-435
MOLT-4 = system: MOLT-4
NCI-H460 = system: NCI-H460
NCI-H522 = system: NCI-H522
PC-3 = system: PC-3
SF-539 = system: SF-539
SK-MEL-2 = system: SK-MEL-2
SN12C = system: SN12C
SNB-19 = system: SNB-19
SW-620 = system: SW-620
TK-10 = system: TK-10
U-251 = system: U-251

With COc1cc(NS(C)(=O)=O)ccc1Nc1c2ccccc2nc2c1[nH]c1ccc(NC3OC(CO)C(O)C(O)C3O)cc12 (stereo not given) the GI50 (BT-549) was 1300 nM (inactive), the GI50 (HCT-15) was 152 nM and the GI50 (HOP-62) was < 16.3 nM (active). For the same compound, the GI50 (HOP-92) was 22.4 nM (active), the GI50 (LOX IMVI) was < 15.4 nM (active) and the GI50 (M19-MEL) was 165 nM (active). For the same compound, the GI50 (MCF7) was 23 nM (active), the GI50 (MDA-MB-231) was 546 nM (active) and the GI50 (MDA-MB-435) was 798 nM (active). For the same compound, the GI50 (MOLT-4) was < 10 nM (active), the GI50 (NCI-H460) was < 10 nM (active) and the GI50 (NCI-H522) was 92.3 nM (active). For the same compound, the GI50 (PC-3) was 90.8 nM (active), the GI50 (SF-539) was < 10 nM (active) and the GI50 (SK-MEL-2) was 269 nM (active). For the same compound, the GI50 (SN12C) was 20.3 nM (active), the GI50 (SNB-19) was 24.2 nM (active) and the GI50 (SW-620) was < 34.8 nM (active). The GI50 (TK-10) was 197 nM (active) and the GI50 (U-251) was < 20.1 nM (active).
